In patent US20160030364A1, “Therapeutic Compositions and Uses Thereof” (MANUKA HEALTH NEW ZEALAND LIMITED, priority 2013, published 2016):

Tested on: human colorectal adenocarcinoma cells (DLD-1)
Experiment: MTT proliferation assay, DLD-1 (Examples 1-2)
Assay type: cell-based
Method: Test samples shown below in Table 2 were assessed for their ability to modulate the viability and proliferation of human colorectal adenocarcinoma cells (DLD-1) as assessed by the MTT assay. A positive control, 5-fluorouracil (5-FU) was included in addition to an unsupplemented cell control (negative control) in the study. The test samples were obtained by fractionation of propolis tincture.
Test samples shown below in Table 2 were assessed for their ability to modulate the viability and proliferation of human colorectal adenocarcinoma cells (DLD-1) as assessed by the MTT assay. A positive control, 5-fluorouracil (5-FU) was included in addition to an unsupplemented cell control (negative control) in the study.
Human colorectal adenocarcinoma epithelial cell lines were revived from cryostorage and cultured in the presence of the test and reference samples. The culture conditions for the cells were those described by the supplier of the cells (ATCC). An MTT assay was then performed on the cultures to determine the effect of the samples on the cell proliferation.
Working solutions were prepared by dissolving the test fractions in 15% ethanol (ETOH)/HBSS to a concentration of 2 mg/mL solids.
• 1. Human colorectal adenocarcinoma cells (ATCC CCI-221, DLD-1). • 2. Penicillin-streptomycin solution: 10000 units/mL penicillin, 10 mg/mL streptomycin in 0.9% NaCl (Sigma Cat #P-0781). Stored at −20° C. • 3. DMEM culture medium (Invitrogen Cat #12100-046) Stored at −20° C. • 4. Trypsin-EDTA solution: 0.25% Trypsin/EDTA, Invitrogen Cat#15400054 (×10 in stock). • 5. Phosphate buffered saline (PBS) (Prepared by TBL). • 6. Hanks Balanced Salt Solution (HBSS). (GIBCO Cat No. 14185-052). Stored at 4° C. • 7. Foetal Bovine Serum (GIBCO Cat #10091-148). Stored at −20° C. • 8. MTT Reagent: 100 mg/vial, (SIGMA Cat. No. M-2128) dissolved in PBS at 10 mg/mL and stored at −20° C. 5 mg/mL MTT solution were prepared in PBS and stored at 4° C. as working solution. • 9. MTT lysis buffer: 10% sodium dodecyl sulphate (SDS)/45% Dimethyl Formamide (20 g SDS was dissolved in 100 mL of double-distilled water (DDW), and 90 mL of Dimethyl Formamide added to the SDS solution). The pH was adjusted to 4.7 by glacial acetic acid, and DDW added up to a final volume of 200 mL. • 10. 5-Fluorouracil (5-FU), (Sigma Cat. No. F-6627). Two working solutions were prepared at 150 ng/mL and 75 ng/mL, dissolved in 15% Ethanol/HBSS. Final concentrations were 7.50 ng/mL and 3.75 ng/mL.
The medium for the propagation of the colorectal adenocarcinoma (DLD-1) cells was DMEM, supplemented with penicillin-streptomycin solution (10 mL per litre). FBS was added just before use to give 10% w/v.
• 1. The human colorectal adenocarcinoma cells (DLD-1) obtained from the American Type Culture Collection USA were revived from cryostorage. • 2. Following initial propagation using the media described above (see Medium Preparation), the culture was subcultured using the trypsin-EDTA as follows. The media was removed and 5 mL of the trypsin-EDTA solution added and incubated at 37° C. for 5 min or until all the cells had detached. The trypsin was neutralised by adding an equal volume of DMEM medium and the culture centrifuged at 300 g (1200 rpm) for 5 min at 4° C. • 3. The supernatant was decanted and the cell pellets resuspended in medium DMEM, FBS (10%), penicillin (100 units/mL), streptomycin (100 μg/mL). The cells were cultured at 37° C. in 5% CO2/95% air. • 4. After reaching confluence, the cells were detached using trypsin-EDTA and centrifuged as described in 2 above. • 5. The supernatants were discarded and the cells resuspended in DMEM and supplements as described in 3 above at 1.0×10^4 cells per mL. • 6. Into each well of three 96 well plates, 180 μl of the cells (1,800 cells/well) or medium was added. The plates were incubated at 5% CO2/95% air at 37° C. for 48 h which was sufficient to allow the cells to adhere. • 7. To each well, 20 μl of each, of the test samples or positive control was added. […]

[1] = Example 2, DLD-1, sample 200 μg/mL, 24 hours incubation

Compound: O=C1C[C@@H](c2ccccc2)Oc2cc(O)cc(O)c21 [Pinocembrin, reference compound]
- Mean OD (570 nm) [1]: 0.0196
- inhibition at 200 µg/mL (Homo sapiens, Example 2, DLD-1, sample 200 μg/mL, 24 hours incubation): 94%

Compound: O=c1[nH]cc(F)c(=O)[nH]1 [Sample 5-FU, 5-fluorouracil, reference compound]
- Mean OD (570 nm) (Example 1, DLD-1, 5-FU 7.50 ng/ml): 0.657
- inhibition at 0.0075 µg/mL (Homo sapiens, Example 1, DLD-1, 5-FU 7.50 ng/ml): 6.69%

Compound: COc1cc(O)c2c(=O)cc(-c3ccccc3)oc2c1 [Tectochrysin, tectochrysin]
- % inhibition [1]: 29.45%
- Mean OD (570 nm) [1]: 0.2285

Compound: O=C(O)/C=C/c1ccc(O)cc1 [p-coumaric acid, para-coumaric acid, reference compound]
- activity against DLD-1 (isolated from NZ propolis, data not shown in Example 2): inactive
